Laboratory results: PMC10732257 (Oncotarget, 2023)

Columns and labels:
CDK9/cyclin T1(h) = CDK9/cyclin T1(h) (Homo sapiens, UniProt P50750); conditions: read-out: IC50 of inhibition of the CDK9/Cyclin T1 complex; radiometric kinase activity
Method: Figure 2 Effect of GFH009 on CDK9 enzymatic activity. IC50 of GFH009 inhibition activity against the CDK9/cyclin T1 complex was determined with Eurofin KinaseProfiler radiometric protein kinase activity.
GFH009 inhibition activity against the CDK9/cyclin T1 complex as well as off-target CDK family reactivity were assayed by Eurofins Pharma Discovery Services UK Ltd., (Dundee, UK). Determination of off-target inhibition of other kinases was conducted by DiscoverX LeadHunter Discovery Services (Freemont, CA, USA.) GFH009 reactivity to GPCR family members was assayed by Wuxi AppTech (Shanghai, China).

M1 (muscarinic Ach) [1] = biological target: T1, M1 (muscarinic Ach) (Homo sapiens, UniProt P11229); assay: GPCR competitive antagonist (off-target inhibitory action) testing; assay type: cell-based
From the text: (§1) Supplementary Table 3: Results of off-target inhibitory action testing of GFH009 administered at
(§2) Competitive antagonist activity against GPCR type shown below
(§3) Target % Inhibitory Effect @ Max Dose
(§4) M1 (muscarinic Ach) 98.78
(§5) M2 (muscarinic Ach) 95.69
(§6) M3 (muscarinic Ach) 99.12

M3 (muscarinic Ach) = M3 (muscarinic Ach) (Homo sapiens, UniProt P20309); assay: as above; assay type: cell-based
From the text: as §1, §2, §3, §4, §5, §6

M2 (muscarinic Ach) [2] = biological target: T2, M2 (muscarinic Ach) (Homo sapiens, UniProt P08172); assay: as above; assay type: cell-based
From the text: as §1, §2, §3, §4, §5, §6

D2 (dopamine) = biological target: T3, D2 (dopamine) (Homo sapiens, UniProt P14416); assay: as above; assay type: cell-based
T3 construct: Wuxi AppTech (contract laboratory)
From the text: as §1, §2

5-HT2B (serotonin) [3] = biological target: T4, 5-HT2B (serotonin) (Homo sapiens, UniProt P41595); assay: as above; assay type: cell-based
T4 construct: Wuxi AppTech (Shanghai, China)
From the text: as §1, §2

CB1 (cannabinoid) = biological target: T5, CB1 (cannabinoid) (Homo sapiens, UniProt P21554); assay: as above; assay type: cell-based
T5 construct: Wuxi AppTech (contract laboratory)
From the text: as §1, §2

CB2 (cannabinoid) = biological target: T6, CB2 (cannabinoid) (Homo sapiens, UniProt P34972); assay: as above; assay type: cell-based
T6 construct: Wuxi AppTech (contract laboratory)
From the text: as §1, §2

V1A (vasopressin) = V1A (vasopressin) (Homo sapiens, UniProt P37288); assay: as above; assay type: cell-based
From the text: as §1, §2

H1 (histamine) [4] = biological target: T7, H1 (histamine) (Homo sapiens, UniProt P35367); assay: as above; assay type: cell-based
T7 construct: Wuxi AppTech (contract laboratory)
From the text: as §1, §2

a1a (adrenoceptor) = biological target: T8, a1a (adrenoceptor) (Homo sapiens, UniProt P35348); assay: as above; assay type: cell-based
T8 construct: Wuxi AppTech (contract laboratory)
From the text: as §1, §2

op-k (opioid) = op-k (opioid) (Homo sapiens, UniProt P41145); assay: as above; assay type: cell-based
From the text: as §1, §2

5-HT1B (serotonin) [5] = biological target: T9, 5-HT1B (serotonin) (Homo sapiens, UniProt P28222); assay: as above; assay type: cell-based
T9 construct: Wuxi AppTech (Shanghai, China)
From the text: as §1, §2

ETA (endothelin) = biological target: T10, ETA (endothelin) (Homo sapiens, UniProt P25101); assay: as above; assay type: cell-based
T10 construct: Wuxi AppTech (contract laboratory)
From the text: as §1, §2

op-m (opioid) = op-m (opioid) (Homo sapiens, UniProt P35372); assay: as above; assay type: cell-based
From the text: as §1, §2

AD2 (adenosine) = assay: as above; assay type: cell-based
From the text: as §1, §2

op-d (opioid) = op-d (opioid) (Homo sapiens, UniProt P41143); assay: as above; assay type: cell-based
From the text: as §1, §2

b2 (adrenoceptor) [6] = biological target: T11, b2 (adrenoceptor) (Homo sapiens, UniProt P07550); assay: as above; assay type: cell-based
T11 construct: Wuxi AppTech (contract laboratory)
From the text: as §1, §2

CCKa [7] = biological target: T12, CCKa (Homo sapiens, UniProt P32238); assay: as above; assay type: cell-based
T12 construct: Wuxi AppTech (contract laboratory)
From the text: as §1, §2

a2a (adrenoceptor) = biological target: T13, a2a (adrenoceptor) (Homo sapiens, UniProt P08913); assay: as above; assay type: cell-based
T13 construct: Wuxi AppTech (contract laboratory)
From the text: as §1, §2

H2 (histamine) [8] = biological target: T14, H2 (histamine) (Homo sapiens, UniProt P25021); assay: as above; assay type: cell-based
From the text: as §1, §2

5-HT1A (serotonin) = biological target: T15, 5-HT1A (serotonin) (Homo sapiens, UniProt P08908); assay: as above; assay type: cell-based
T15 construct: Wuxi AppTech (Shanghai, China)
From the text: as §1, §2

D1 (dopamine) = biological target: T16, D1 (dopamine) (Homo sapiens, UniProt P21728); assay: as above; assay type: cell-based
T16 construct: Wuxi AppTech (contract laboratory)
From the text: as §1, §2

5-HT2A (serotonin) [9] = biological target: T17, 5-HT2A (serotonin) (Homo sapiens, UniProt P28223); assay: as above; assay type: cell-based
T17 construct: Wuxi AppTech (Shanghai, China)
From the text: as §1, §2

b1 (adrenoceptor) = biological target: T18, b1 (adrenoceptor) (Homo sapiens, UniProt P08588); assay: as above; assay type: cell-based
T18 construct: Wuxi AppTech (contract laboratory)
From the text: as §1, §2

M1 (muscarinic Ach) [10] = biological target: T1, M1 (muscarinic Ach); assay: GPCR agonist action testing; assay type: cell-based
From the text: (§7) Supplementary Table 2: Results of GPCR agonist action testing of GFH009 administered at a
(§8) Agonist action against GPCR type shown below
(§9) Target % Agonist Effect @ Max Dose
(§10) M1 (muscarinic Ach) −2.18
(§11) M2 (muscarinic Ach) −0.63

5-HT2B (serotonin) [11] = biological target: T4, 5-HT2B (serotonin); assay: GPCR agonist action testing; assay type: cell-based
From the text: as §7, §8, §9, §10, §11

H1 (histamine) [12] = biological target: T7, H1 (histamine); assay: GPCR agonist action testing; assay type: cell-based
From the text: as §7, §8, §9, §10, §11

5-HT1B (serotonin) [13] = biological target: T9, 5-HT1B (serotonin); assay: GPCR agonist action testing; assay type: cell-based
From the text: as §7, §8, §9, §10, §11

b2 (adrenoceptor) [14] = biological target: T11, b2 (adrenoceptor); assay: GPCR agonist action testing; assay type: cell-based
From the text: as §7, §8, §9, §10, §11

CCKa [15] = biological target: T12, CCKa; assay: GPCR agonist action testing; assay type: cell-based
From the text: as §7, §8, §9, §10, §11

M2 (muscarinic Ach) [16] = biological target: T2, M2 (muscarinic Ach); assay: GPCR agonist action testing; assay type: cell-based
From the text: as §7, §8, §9, §10, §11

H2 (histamine) [17] = biological target: T14, H2 (histamine); assay: GPCR agonist action testing; assay type: cell-based
From the text: as §7, §8, §9, §10, §11

5-HT2A (serotonin) [18] = biological target: T17, 5-HT2A (serotonin); assay: GPCR agonist action testing; assay type: cell-based
From the text: as §7, §8, §9, §10, §11

COC[C@@H](C)NC1CCC(Nc2cc(-c3csc(NCC4(C#N)CCOCC4)n3)c(Cl)cn2)CC1 (stereo partly shown) [GFH009]
IC50 (CDK9/cyclin T1(h)): 9 nM | % Inhibitory Effect @ Max Dose (10 µM) (M1 (muscarinic Ach) [1]): 98.78% | % Inhibitory Effect @ Max Dose (10 µM) (M3 (muscarinic Ach)): 99.12% | % Inhibitory Effect @ Max Dose (10 µM) (M2 (muscarinic Ach) [2]): 95.69% | % Inhibitory Effect @ Max Dose (10 µM) (D2 (dopamine)): 10.34% | % Inhibitory Effect @ Max Dose (10 µM) (5-HT2B (serotonin) [3]): −24.98% | % Inhibitory Effect @ Max Dose (10 µM) (CB1 (cannabinoid)): −9.21% | % Inhibitory Effect @ Max Dose (10 µM) (CB2 (cannabinoid)): −8.86% | % Inhibitory Effect @ Max Dose (10 µM) (V1A (vasopressin)): −1.57% | % Inhibitory Effect @ Max Dose (10 µM) (H1 (histamine) [4]): 12.37% | % Inhibitory Effect @ Max Dose (10 µM) (a1a (adrenoceptor)): 68.39% | % Inhibitory Effect @ Max Dose (10 µM) (op-k (opioid)): 11.54% | % Inhibitory Effect @ Max Dose (10 µM) (5-HT1B (serotonin) [5]): 4.71% | % Inhibitory Effect @ Max Dose (10 µM) (ETA (endothelin)): −0.32% | % Inhibitory Effect @ Max Dose (10 µM) (op-m (opioid)): 20.94% | % Inhibitory Effect @ Max Dose (10 µM) (AD2 (adenosine)): −13.58% | % Inhibitory Effect @ Max Dose (10 µM) (op-d (opioid)): −15.46% | % Inhibitory Effect @ Max Dose (10 µM) (b2 (adrenoceptor) [6]): −3.46% | % Inhibitory Effect @ Max Dose (10 µM) (CCKa [7]): 16.26% | % Inhibitory Effect @ Max Dose (10 µM) (a2a (adrenoceptor)): 5.16% | % Inhibitory Effect @ Max Dose (10 µM) (H2 (histamine) [8]): −18.49% | % Inhibitory Effect @ Max Dose (10 µM) (5-HT1A (serotonin)): 12.31% | % Inhibitory Effect @ Max Dose (10 µM) (D1 (dopamine)): 1.10% | % Inhibitory Effect @ Max Dose (10 µM) (5-HT2A (serotonin) [9]): −7.10% | % Inhibitory Effect @ Max Dose (10 µM) (b1 (adrenoceptor)): 30.48% | % Agonist Effect @ Max Dose (12 µM) (M1 (muscarinic Ach) [10]): −2.18% | % Agonist Effect @ Max Dose (12 µM) (5-HT2B (serotonin) [11]): 4.55% | % Agonist Effect @ Max Dose (12 µM) (H1 (histamine) [12]): 1.55% | % Agonist Effect @ Max Dose (12 µM) (5-HT1B (serotonin) [13]): −51.01% | % Agonist Effect @ Max Dose (12 µM) (b2 (adrenoceptor) [14]): −0.6% | % Agonist Effect @ Max Dose (12 µM) (CCKa [15]): −0.4% | % Agonist Effect @ Max Dose (12 µM) (M2 (muscarinic Ach) [16]): −0.63% | % Agonist Effect @ Max Dose (12 µM) (H2 (histamine) [17]): −0.03% | % Agonist Effect @ Max Dose (12 µM) (5-HT2A (serotonin) [18]): −1.68%
